From US11292801B2, “Calpain modulators and therapeutic uses thereof” (Blade Therapeutics, Inc., priority 2016, dated 2022) come the findings set out here.

Where only a bound is given, the exact number is not on record here.

For one experiment, the target named is T1, Human Calpain 1/NS1 (Homo sapiens, UniProt P07384).
T1 sequence (P07384 1-714): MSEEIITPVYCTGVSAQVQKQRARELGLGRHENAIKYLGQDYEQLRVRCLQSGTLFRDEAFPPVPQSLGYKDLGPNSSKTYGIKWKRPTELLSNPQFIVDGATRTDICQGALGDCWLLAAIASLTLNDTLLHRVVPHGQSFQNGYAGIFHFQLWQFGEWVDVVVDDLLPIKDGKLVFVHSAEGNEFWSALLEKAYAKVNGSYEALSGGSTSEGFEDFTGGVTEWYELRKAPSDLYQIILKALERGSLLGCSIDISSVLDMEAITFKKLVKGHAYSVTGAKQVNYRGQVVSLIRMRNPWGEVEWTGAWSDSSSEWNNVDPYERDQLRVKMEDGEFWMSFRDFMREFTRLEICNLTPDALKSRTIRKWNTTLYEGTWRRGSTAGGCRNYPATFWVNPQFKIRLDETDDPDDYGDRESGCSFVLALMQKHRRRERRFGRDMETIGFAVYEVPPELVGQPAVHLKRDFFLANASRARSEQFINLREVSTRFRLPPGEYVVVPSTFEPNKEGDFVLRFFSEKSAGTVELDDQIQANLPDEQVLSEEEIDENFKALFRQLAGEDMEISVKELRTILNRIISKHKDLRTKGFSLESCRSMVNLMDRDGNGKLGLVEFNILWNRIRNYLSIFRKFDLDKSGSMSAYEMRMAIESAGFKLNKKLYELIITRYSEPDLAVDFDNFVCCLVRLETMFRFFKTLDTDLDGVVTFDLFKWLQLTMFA
T1 sequence (P04632 1-268 partner): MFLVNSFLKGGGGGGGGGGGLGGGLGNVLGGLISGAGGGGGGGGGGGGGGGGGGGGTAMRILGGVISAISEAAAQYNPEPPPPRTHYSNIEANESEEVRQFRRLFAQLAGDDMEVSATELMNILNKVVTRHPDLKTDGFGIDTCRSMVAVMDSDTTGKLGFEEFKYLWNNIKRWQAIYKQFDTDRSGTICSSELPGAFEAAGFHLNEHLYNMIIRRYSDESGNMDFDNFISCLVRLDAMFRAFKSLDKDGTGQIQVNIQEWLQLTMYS
As to the kind of experiment: Biochemical inhibition of calpain 1, continuous fluorescence (FRET substrate) assay. The following applies: mean, read-out: Human Calpain 1/NS1 IC50 (nM)_MEAN. The method, then: (§1) Calpain 1, 2, and 9 activity and inhibition thereof are assessed by means of a continuous fluorescence assay. The SensoLyte 520 Calpain substrate (Anaspec Inc) is optimized for detecting calpain activity. This substrate contains a novel internally quenched 5-FAM/QXL™ 520 FRET pair. Calpains 1, 2, and 9 cleave the FRET substrate into two separate fragments resulting in an increase of 5-FAM fluorescence that is proportional to calpain activity.
(§2) Assays are typically setup in black 384-well plates using automated liquid handling as follows. Calpain assay base buffer typically contains 50 mM Tris, pH˜7.5, 100 mM NaCl and 1 mM DTT. Inhibitors are serially diluted in DMSO and used to setup 2× mixtures with calpains in the aforementioned buffer. After incubation at ambient temperature (25C), the reaction is initiated by adding a 2× mix of the fluorescent peptide substrate and CaCl2) (required for in-situ calpain activation) in the same buffer. Reaction progress curve data are typically collected for 10 min using excitation/emission wavelengths of 490 nm/520 nm on SpectraMax i3× or the FLIPR-Tetra plate readers (Molecular Devices Inc). Reaction rates were calculated from progress curve slopes typically over 1-5 min. Dose response curves (rate vs. log inhibitor concentration) were typically fit to a 4-parameter logistic function to extract IC50 values.

The next experiment deals with T2, Human Calpain 2/NS1 (Homo sapiens, UniProt P17655).
T2 sequence (P17655 1-700): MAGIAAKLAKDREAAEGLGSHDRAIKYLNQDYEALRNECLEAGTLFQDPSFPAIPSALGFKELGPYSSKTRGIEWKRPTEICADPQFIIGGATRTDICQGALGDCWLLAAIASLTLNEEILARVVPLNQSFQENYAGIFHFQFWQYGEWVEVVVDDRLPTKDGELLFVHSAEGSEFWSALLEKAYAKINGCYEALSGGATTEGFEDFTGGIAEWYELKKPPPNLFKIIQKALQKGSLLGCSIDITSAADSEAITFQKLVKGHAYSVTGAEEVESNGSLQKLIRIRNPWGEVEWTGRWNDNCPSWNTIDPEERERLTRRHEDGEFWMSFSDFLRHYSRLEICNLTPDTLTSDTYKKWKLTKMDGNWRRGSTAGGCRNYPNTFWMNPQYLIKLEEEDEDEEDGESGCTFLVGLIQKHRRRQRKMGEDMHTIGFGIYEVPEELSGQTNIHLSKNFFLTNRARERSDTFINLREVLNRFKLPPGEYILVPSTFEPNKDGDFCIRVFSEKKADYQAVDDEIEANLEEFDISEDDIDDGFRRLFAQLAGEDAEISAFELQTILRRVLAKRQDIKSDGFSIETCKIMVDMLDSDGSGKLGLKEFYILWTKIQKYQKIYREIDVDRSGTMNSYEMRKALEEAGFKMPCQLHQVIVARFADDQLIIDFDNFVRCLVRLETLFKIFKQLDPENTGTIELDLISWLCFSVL
T2 sequence (P04632 1-268 partner): T1 sequence (P04632 1-268 partner)
Put plainly: Biochemical inhibition of calpain 2, continuous fluorescence (FRET substrate) assay. The following applies: mean, read-out: Human Calpain 2/NS1 IC50 (nM)_MEAN. The method, then:
as §1, §2

The next experiment has as its target T3, Human Calpain 9/NS1 (Homo sapiens, UniProt O14815).
T3 sequence (O14815 1-690): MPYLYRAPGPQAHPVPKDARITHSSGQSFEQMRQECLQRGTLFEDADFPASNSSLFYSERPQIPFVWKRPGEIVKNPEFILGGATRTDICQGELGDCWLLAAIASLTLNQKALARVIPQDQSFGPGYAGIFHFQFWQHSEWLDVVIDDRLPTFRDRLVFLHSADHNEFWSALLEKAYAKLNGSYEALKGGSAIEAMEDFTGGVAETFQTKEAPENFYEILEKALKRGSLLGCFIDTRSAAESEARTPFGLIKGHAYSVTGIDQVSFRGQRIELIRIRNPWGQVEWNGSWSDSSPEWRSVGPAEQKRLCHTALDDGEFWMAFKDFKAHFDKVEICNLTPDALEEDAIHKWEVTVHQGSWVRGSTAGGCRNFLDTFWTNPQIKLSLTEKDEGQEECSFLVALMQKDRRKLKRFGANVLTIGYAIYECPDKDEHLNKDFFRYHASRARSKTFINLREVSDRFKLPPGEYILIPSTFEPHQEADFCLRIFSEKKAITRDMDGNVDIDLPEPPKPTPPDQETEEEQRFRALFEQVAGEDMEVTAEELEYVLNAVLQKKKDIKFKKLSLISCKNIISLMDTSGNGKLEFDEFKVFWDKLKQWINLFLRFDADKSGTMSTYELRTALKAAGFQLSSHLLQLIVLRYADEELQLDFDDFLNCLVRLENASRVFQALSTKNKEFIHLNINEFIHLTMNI
T3 sequence (P04632 1-268 partner): T1 sequence (P04632 1-268 partner)
Put plainly: Biochemical inhibition of calpain 9, continuous fluorescence (FRET substrate) assay. The following applies: mean, read-out: Human Calpain 9/NS1 IC50 (nM)_MEAN. As to the method:
as §1, §2

As to `O=C[C@@H]1Cc2ccccc2CCCOCc2ccccc2C(=O)N1` [Compound 31, (S)-17-Oxo-5,7,8,9,14,15,16,17-octahydrodibenzo[c,i][1]oxa[6]aza-cyclotridecine-15-carbaldehyde], the IC50 on Human Calpain 1/NS1, on Human Calpain 2/NS1 and at Human Calpain 9/NS1 was less than 3000 nM each time.
As for `CCNC(=O)C(=O)[C@@H]1CCCCCCCCc2ccccc2C(=O)N1` [Compound 25, (S)—N-ethyl-2-oxo-2-(1-oxo-2,3,4,5,6,7,8,9,10,11-decahydro-1h-benzo[c][1]aza-cyclotridecin-3-yl)acetamide], the IC50 on Human Calpain 1/NS1, at Human Calpain 2/NS1 and at Human Calpain 9/NS1 was more than 10000 nM in each case.
`NC(=O)C(=O)[C@@H]1CCCCOCCOCc2ccccc2C(=O)N1` [Compound 57, (S)-2-Oxo-2-(12-oxo-1,3,4,6,7,8,9,10,11,12-decahydrobenzo[f][1,4]dioxa[9]azacyclotetradecin-10-yl)acetamide]: the values for the IC50 on Human Calpain 1/NS1, at Human Calpain 2/NS1 and at Human Calpain 9/NS1 were 3000 to 10000 nM, less than 3000 nM and less than 3000 nM, respectively.
As to `O=C[C@@H]1CCCCOCCn2ccc3cccc(c32)C(=O)N1` [Compound 8, (S)-11-Oxo-2,3,4,5,8,9,10,11-octahydrobenzo[b][1]oxa[5]azacyclotridecine-9-carbaldehyde], the IC50 on Human Calpain 1/NS1 was 3000 to 10000 nM; at Human Calpain 2/NS1, less than 3000 nM; on Human Calpain 9/NS1, less than 3000 nM.
Regarding `O=C[C@@H]1CCCCCCCCc2ccccc2C(=O)N1` [Compound 15, (S)-1-Oxo-2,3,4,5,6,7,8,9,10,11-decahydro-1h-benzo[c][1]aza-cyclotridecine-3-carbaldehyde], the IC50 at Human Calpain 1/NS1 is 3000 to 10000 nM; at Human Calpain 2/NS1 it was less than 3000 nM; on Human Calpain 9/NS1, less than 3000 nM.
Take `O=C[C@@H]1Cc2ccc(cc2)OCCCCOc2ccc3c(cnn3-c3ncccc3C(=O)N1)c2` [Compound 67, (5S)-3-oxo-1^1H-8,13-dioxa-4-aza-1(1,5)-indazola-2(2,3)-pyridina-7(1,4)-benzenacyclotridecaphane-5-carbaldehyde]: the IC50 on Human Calpain 1/NS1, on Human Calpain 2/NS1 and on Human Calpain 9/NS1 was less than 3000 nM each time.
Turning to `O=C(NCCc1ccc(Cl)cc1)C(=O)[C@@H]1C/C=C/COCCOCc2ccccc2C(=O)N1` [Compound 78, (S,E)-N-(4-chlorophenethyl)-2-oxo-2-(12-oxo-1,3,4,6,9,10,11,12-octahydrobenzo[f][1,4]dioxa[9]azacyclotetradecin-10-yl)acetamide], the IC50 on Human Calpain 1/NS1 is 3000 to 10000 nM; on Human Calpain 2/NS1, 3000 to 10000 nM; on Human Calpain 9/NS1, less than 3000 nM.
In the case of `COc1cccc(CCNC(=O)C(=O)C2CCCCOCCOCc3ccccc3C(=O)N2)c1` (centres unmarked) [Compound 88, N-(3-methoxyphenethyl)-2-oxo-2-(12-oxo-1,3,4,6,7,8,9,10,11,12-decahydrobenzo[f][1,4]dioxa[9]azacyclotetradecin-10-yl)acetamide], the IC50 at Human Calpain 1/NS1 is more than 10000 nM; on Human Calpain 2/NS1 it was more than 10000 nM; at Human Calpain 9/NS1 it was less than 3000 nM.
On to `O=C(NCc1cccc(F)c1)C(=O)C1CCCCOCCOCc2ccccc2C(=O)N1` (centres unmarked) [Compound 106, N-(3-fluorobenzyl)-2-oxo-2-(12-oxo-1,3,4,6,7,8,9,10,11,12-decahydrobenzo[f][1,4]dioxa[9]azacyclotetradecin-10-yl)acetamide], for which the IC50 at Human Calpain 1/NS1 was more than 10000 nM; on Human Calpain 2/NS1 it was 3000 to 10000 nM; at Human Calpain 9/NS1, less than 3000 nM.
Taken in the same sequence, the figures for `O=C[C@@H]1CCCCCCCOc2ccccc2C(=O)N1` [Compound 6, (S)-11-Oxo-2,3,4,5,6,7,8,9,10,11-decahydrobenzo[b][1]oxa[5]azacyclotridecine-9-carbaldehyde] were 3000 to 10000 nM, less than 3000 nM and less than 3000 nM.
Taken in the same sequence, the figures for `COc1ccc(CCNC(=O)C(=O)C2CCCCOCCOCc3ccccc3C(=O)N2)cc1OC` (centres unmarked) [Compound 123, N-(3,4-dimethoxyphenethyl)-2-oxo-2-(12-oxo-1,3,4,6,7,8,9,10,11,12-decahydrobenzo[f][1,4]dioxa[9]azacyclotetradecin-10-yl)acetamide] were more than 10000 nM, more than 10000 nM and 3000 to 10000 nM.
Regarding `O=C(NCc1ccccn1)C(=O)C1CCCCOCCOCc2ccccc2C(=O)N1` (centres unmarked) [Compound 94, 2-Oxo-2-(12-oxo-1,3,4,6,7,8,9,10,11,12-decahydrobenzo[f][1,4]dioxa[9]aza-cyclotetradecin-10-yl)-N-(pyridin-2-ylmethyl)acetamide], the IC50 on Human Calpain 1/NS1 was more than 10000 nM; on Human Calpain 2/NS1, more than 10000 nM; at Human Calpain 9/NS1, less than 3000 nM.
Regarding `O=C[C@@H]1CC=CCCCCCc2ccccc2C(=O)N1` [Compound 14, (S)-1-Oxo-2,3,4,7,8,9,10,11-octahydro-1h-benzo[c][1]aza-cyclotridecine-3-carbaldehyde], the IC50 on Human Calpain 1/NS1 was 3000 to 10000 nM; at Human Calpain 2/NS1 it was less than 3000 nM; at Human Calpain 9/NS1, less than 3000 nM.
For `NC(=O)C(=O)[C@@H]1C/C=C\CCOc2ccnc(n2)-c2ccccc2C(=O)N1` [Compound 138, (S,Z)-2-oxo-2-(3-oxo-11-oxa-4-aza-1(2,4)-pyrimidina-2(1,2)-benzenacycloundecaphan-7-en-5-yl)acetamide], the IC50 on Human Calpain 1/NS1, on Human Calpain 2/NS1 and on Human Calpain 9/NS1 was less than 3000 nM in each case.
As for `O=C(NC1CCCC1)C(=O)C1CCCCOCCOCc2ccccc2C(=O)N1` (centres unmarked) [Compound 109, N-cyclopentyl-2-oxo-2-(12-oxo-1,3,4,6,7,8,9,10,11,12-decahydrobenzo[f][1,4]dioxa[9]azacyclotetradecin-10-yl)acetamide], the IC50 at Human Calpain 1/NS1 and at Human Calpain 2/NS1 was more than 10000 nM in each case.
